Data published in ChEMBL document CHEMBL4483862, “Open-source discovery of chemical leads for next-generation chemoprotective antimalarials” (2018).

Test system: Plasmodium berghei
Assay: Luciferase/luciferin-expressing antifolate-resistant parasites were used to infect a culture of HepG2 cells that were pre-incubated with compounds. Infected hepatocytes emit light due to the luciferase reaction. Assay results are presented as the percent inhibition of light emission compared to control. […]
Assay type: functional
Conditions: sporozoite; for IC90: read-out: LUCIFERASE INFECTION ASSAY - IC90

Row | Structure (SMILES) | IC90 | also measured
1 | CNC(=O)NC(=O)COc1ccccc1C#N | > 10 µM | IC50 (FFLUC_HILL_SLOPE 16.2, FFLUC_R_SQUARED 0.422, read-out: LUCIFERASE INFECTION ASSAY - IC50): > 10 µM
2 | O=C(/C(=N/Nc1ccc(Cl)cc1Cl)C(=O)C(F)(F)F)c1cccs1 | 5.87 µM | IC50 (FFLUC_HILL_SLOPE 16.5, FFLUC_R_SQUARED 0.242, PBLUC_HILL_SLOPE 1.77, PBLUC_R_SQUARED 0.602, read-out: LUCIFERASE INFECTION ASSAY - IC50): 1.7 µM
3 | Cc1nc(SCC(=O)Nc2nc(Br)sc2Cc2ccc([N+](=O)[O-])cc2)sc1Cc1ccccc1 | > 10 µM | IC50 (FFLUC_HILL_SLOPE 16.2, FFLUC_R_SQUARED 0.412, read-out: LUCIFERASE INFECTION ASSAY - IC50): > 10 µM
4 | N#Cc1c(SCC(=O)c2ccccc2)nc2c(c1-c1cccs1)CCCC2 | > 8.45 µM | IC50 (FFLUC_HILL_SLOPE 16.5, FFLUC_R_SQUARED 0.662, PBLUC_HILL_SLOPE 1.37, PBLUC_R_SQUARED 0.669, read-out: LUCIFERASE INFECTION ASSAY - IC50): 3.67 µM
5 | O=C(Nc1cc(Cl)ccc1N1CCOCC1)c1ccccc1NS(=O)(=O)c1ccc(Br)s1 | 1.16 µM | IC50 (FFLUC_HILL_SLOPE 16.2, FFLUC_R_SQUARED 0.517, HEPG2TOX_HILL_SLOPE 1.46, HEPG2TOX_R_SQUARED 0.905, PBLUC_HILL_SLOPE 14.3, PBLUC_R_SQUARED 0.479, read-out: LUCIFERASE INFECTION ASSAY - IC50): 0.994 µM
6 | CCCNC(=O)c1c(NC(=O)c2ccc(Cl)cc2Cl)nc2ccccn12 | 2.94 µM | IC50 (FFLUC_HILL_SLOPE 16.3, FFLUC_R_SQUARED 0.135, HEPG2TOX_HILL_SLOPE 2.05, HEPG2TOX_R_SQUARED 0.922, PBLUC_HILL_SLOPE 37.2, PBLUC_R_SQUARED 0.437, read-out: LUCIFERASE INFECTION ASSAY - IC50): 2.77 µM
7 | CCc1ccccc1OCC(=O)Nc1cc(Cl)ccc1N1CCN(C)CC1 | > 10 µM | IC50 (FFLUC_HILL_SLOPE 16.4, FFLUC_R_SQUARED 0.269, read-out: LUCIFERASE INFECTION ASSAY - IC50): > 10 µM
8 | CC(=C(C#N)C#N)c1ccc(Cl)cc1 | > 16.3 µM | IC50 (FFLUC_HILL_SLOPE 16.5, FFLUC_R_SQUARED 0.121, read-out: LUCIFERASE INFECTION ASSAY - IC50): > 16.3 µM
9 | Cc1cc(C)cc(C(=O)N(CC2CCCO2)c2nc3ccccc3s2)c1 (centres undefined) | > 10 µM | IC50 (FFLUC_HILL_SLOPE 16.6, FFLUC_R_SQUARED 0.205, read-out: LUCIFERASE INFECTION ASSAY - IC50): > 10 µM
10 | Cc1ccccc1N1C(=O)c2ccccc2C(Cc2ccc(C#N)cc2)(Cc2ccc(C#N)cc2)C1=O | > 10 µM | IC50 (FFLUC_HILL_SLOPE 16.6, FFLUC_R_SQUARED 0.0411, PBLUC_HILL_SLOPE 0.772, PBLUC_R_SQUARED 0.177, read-out: LUCIFERASE INFECTION ASSAY - IC50): > 10 µM
11 | C=C(C)C(=O)Oc1cccc(Oc2c(F)c(F)c(-c3c(F)c(F)c(Oc4cccc(OC(=O)C(=C)C)c4)c(F)c3F)c(F)c2F)c1 | > 10 µM | IC50 (FFLUC_HILL_SLOPE 16.5, FFLUC_R_SQUARED 0.83, read-out: LUCIFERASE INFECTION ASSAY - IC50): > 10 µM
12 | CC(NCC(=O)N1c2ccc(S(N)(=O)=O)cc2CC1C)C1CC2CCC1C2 (centres undefined) | 7.51 µM | IC50 (FFLUC_HILL_SLOPE 16.6, FFLUC_R_SQUARED 0.154, PBLUC_HILL_SLOPE 1.1, PBLUC_R_SQUARED 0.764, read-out: LUCIFERASE INFECTION ASSAY - IC50): 1.03 µM
13 | Cc1c(C(=O)Nc2ncccc2O)[nH]c2c1C(=O)CCC2 | > 10 µM | IC50 (FFLUC_HILL_SLOPE 16.5, FFLUC_R_SQUARED 0.153, HEPG2TOX_HILL_SLOPE 5.63, HEPG2TOX_R_SQUARED 0.429, read-out: LUCIFERASE INFECTION ASSAY - IC50): > 10 µM
14 | O=C(CN1CCC(c2c[nH]c3ccccc23)CC1)Nc1ccc(Cl)c([N+](=O)[O-])c1 | 9.15 µM | IC50 (FFLUC_HILL_SLOPE 16.3, FFLUC_R_SQUARED 0.426, PBLUC_HILL_SLOPE 3.46, PBLUC_R_SQUARED 0.601, read-out: LUCIFERASE INFECTION ASSAY - IC50): 4.85 µM
15 | CCN(CC)S(=O)(=O)c1ccc(OC(C)C)c(NC(=O)c2cc(C3CC3)nc3c2cnn3C(C)C)c1 | > 10 µM | IC50 (FFLUC_HILL_SLOPE 16.5, FFLUC_R_SQUARED 0.255, read-out: LUCIFERASE INFECTION ASSAY - IC50): > 10 µM
16 | CCC(C)c1ccc(NC(=O)c2ccc[nH]c2=S)cc1 (centres undefined) | > 10 µM | IC50 (FFLUC_HILL_SLOPE 16.3, FFLUC_R_SQUARED 0.684, PBLUC_HILL_SLOPE 0.824, PBLUC_R_SQUARED 0.804, read-out: LUCIFERASE INFECTION ASSAY - IC50): 7.03 µM

Row | Structure (SMILES) | IC90 | also measured
17 | Cc1ccc(/C=N/n2c(-c3cc(C)c(C)cc3C)cs/c2=N\CC2CCCO2)o1 (centres undefined) | 3.52 µM | IC50 (FFLUC_HILL_SLOPE 16.3, FFLUC_R_SQUARED 0.0442, HEPG2TOX_HILL_SLOPE 1.44, HEPG2TOX_R_SQUARED 0.874, PBLUC_HILL_SLOPE 40.1, PBLUC_R_SQUARED 0.415, read-out: LUCIFERASE INFECTION ASSAY - IC50): 3.33 µM
18 | Cc1cc(N2CCN(C(=O)c3cc(-c4ccccc4)nc4c3cnn4C(C)C)CC2)nc(C(C)C)n1 | > 10 µM | IC50 (FFLUC_HILL_SLOPE 16.4, FFLUC_R_SQUARED 0.735, read-out: LUCIFERASE INFECTION ASSAY - IC50): > 10 µM
19 | CCCCCCCc1ccc(C(=O)Nc2ccc(F)c(Cl)c2)cc1 | > 9.49 µM | IC50 (FFLUC_HILL_SLOPE 16.3, FFLUC_R_SQUARED 0.0372, PBLUC_HILL_SLOPE 1.73, PBLUC_R_SQUARED 0.521, read-out: LUCIFERASE INFECTION ASSAY - IC50): 4.92 µM
20 | FC(F)(F)c1nc2ccccc2nc1-n1nccc1-c1ccc(Cl)cc1 | > 8.81 µM | IC50 (FFLUC_HILL_SLOPE 16.3, FFLUC_R_SQUARED 0.637, HEPG2TOX_HILL_SLOPE 7.13, HEPG2TOX_R_SQUARED 0.448, PBLUC_HILL_SLOPE 3.24, PBLUC_R_SQUARED 0.732, read-out: LUCIFERASE INFECTION ASSAY - IC50): 5.14 µM
21 | FC(F)(F)Oc1ccc(Nc2n[nH]c(=S)s2)cc1 | 5 µM | IC50 (FFLUC_HILL_SLOPE 16.2, FFLUC_R_SQUARED 0.24, PBLUC_HILL_SLOPE 2.38, PBLUC_R_SQUARED 0.611, read-out: LUCIFERASE INFECTION ASSAY - IC50): 1.99 µM
22 | CCOC(=O)Cc1nn(Cc2nc(-c3ccc4c(c3)C(C)(C)CCC4(C)C)cs2)c(=O)c2ccccc12 | 2.02 µM | IC50 (FFLUC_HILL_SLOPE 16.2, FFLUC_R_SQUARED 0.167, PBLUC_HILL_SLOPE 1.27, PBLUC_R_SQUARED 0.666, read-out: LUCIFERASE INFECTION ASSAY - IC50): 0.357 µM
23 | Cc1ccc(S(=O)(=O)N2CCN(C(=O)/C=C/c3ccsc3)CC2)cc1 | > 10 µM | IC50 (FFLUC_HILL_SLOPE 16.5, FFLUC_R_SQUARED 0.182, read-out: LUCIFERASE INFECTION ASSAY - IC50): > 10 µM
24 | CCCc1cc(=O)n(-c2ccc(Cl)cc2)[nH]1 | 5.8 µM | IC50 (FFLUC_HILL_SLOPE 16.5, FFLUC_R_SQUARED 0.266, HEPG2TOX_HILL_SLOPE 6.52, HEPG2TOX_R_SQUARED 0.85, PBLUC_HILL_SLOPE 14.3, PBLUC_R_SQUARED 0.712, read-out: LUCIFERASE INFECTION ASSAY - IC50): 4.97 µM
25 | O=C(NNC(=O)c1ccccn1)c1ccc(C2SCCCS2)cc1 | > 10 µM | IC50 (FFLUC_HILL_SLOPE 16.5, FFLUC_R_SQUARED 0.524, PBLUC_HILL_SLOPE 17.5, PBLUC_R_SQUARED 0.078, read-out: LUCIFERASE INFECTION ASSAY - IC50): 9.07 µM
26 | CC(C)c1cccc(C(C)C)c1NC(=O)COc1ccc(CCO)cc1-n1nc2ccccc2n1 | 6.85 µM | IC50 (FFLUC_HILL_SLOPE 16.3, FFLUC_R_SQUARED 0.284, PBLUC_HILL_SLOPE 3.54, PBLUC_R_SQUARED 0.756, read-out: LUCIFERASE INFECTION ASSAY - IC50): 3.68 µM
27 | O=C(N/N=C/c1ccccc1C(F)(F)F)c1[nH]c2ccccc2c1-c1ccccc1 | 1.07 µM | IC50 (FFLUC_HILL_SLOPE 16.3, FFLUC_R_SQUARED 0.334, HEPG2TOX_HILL_SLOPE 1.94, HEPG2TOX_R_SQUARED 0.976, PBLUC_HILL_SLOPE 7.87, PBLUC_R_SQUARED 0.839, read-out: LUCIFERASE INFECTION ASSAY - IC50): 0.813 µM
28 | CC1c2ccsc2CCN1C(=S)NC(=O)c1cccs1 (centres undefined) | > 10.2 µM | IC50 (FFLUC_HILL_SLOPE 16.3, FFLUC_R_SQUARED 0.288, HEPG2TOX_HILL_SLOPE 6.88, HEPG2TOX_R_SQUARED 0.689, PBLUC_HILL_SLOPE 3.81, PBLUC_R_SQUARED 0.3, read-out: LUCIFERASE INFECTION ASSAY - IC50): 6.21 µM
29 | Cc1nc(Nc2ccc(C(=O)N(C)C)cc2)c2c(-c3ccccc3)csc2n1 | 8.69 µM | IC50 (FFLUC_HILL_SLOPE 16.2, FFLUC_R_SQUARED 0.398, PBLUC_HILL_SLOPE 15.9, 4.17, PBLUC_R_SQUARED 0.757, 0.868, read-out: LUCIFERASE INFECTION ASSAY - IC50): 7.45 µM
30 | COc1ccc(OCc2cc(C(=O)NCc3ccccc3)c(C)o2)cc1 | > 10 µM | IC50 (FFLUC_HILL_SLOPE 16.5, FFLUC_R_SQUARED 0.199, HEPG2TOX_HILL_SLOPE 9.38, HEPG2TOX_R_SQUARED 0.316, read-out: LUCIFERASE INFECTION ASSAY - IC50): > 10 µM
31 | Cc1nc2ncnn2c(N2CCc3ccccc3C2)c1Cl | 6.09 µM | IC50 (FFLUC_HILL_SLOPE 16.4, FFLUC_R_SQUARED 0.0433, HEPG2TOX_HILL_SLOPE 1.21, HEPG2TOX_R_SQUARED 0.855, PBLUC_HILL_SLOPE 2.02, PBLUC_R_SQUARED 0.689, read-out: LUCIFERASE INFECTION ASSAY - IC50): 2.05 µM
32 | COc1ccc(N2C(=O)C=CC2=O)cc1 | > 16.2 µM | IC50 (FFLUC_HILL_SLOPE 16.4, FFLUC_R_SQUARED 0.242, read-out: LUCIFERASE INFECTION ASSAY - IC50): > 16.2 µM
